PMC9543379, “Dihydroxy‐Acid Dehydratases From Pathogenic Bacteria: Emerging Drug Targets to Combat Antibiotic Resistance” (Chemistry (Weinheim an Der Bergstrasse, Germany), 2022)

Key:
Format in all cases: biochemical
[1] = molecular target: T1, SaDHAD (dihydroxy-acid dehydratase) (Staphylococcus aureus, UniProt Q2FWK7); assay: DNPH colorimetric endpoint assay with DHIV, 30-min pre-incubation
T1 construct: gene ilvD; hexa-histidine tag at the N-terminal, pET-28a

[2] = molecular target: T2, CjDHAD (dihydroxy-acid dehydratase) (Campylobacter jejuni, UniProt Q9PJ98); assay: as above
T2 construct: gene ilvD; hexa-histidine tag at the N-terminal, pET-28a
T2 sequence (Q9PJ98 whole entry): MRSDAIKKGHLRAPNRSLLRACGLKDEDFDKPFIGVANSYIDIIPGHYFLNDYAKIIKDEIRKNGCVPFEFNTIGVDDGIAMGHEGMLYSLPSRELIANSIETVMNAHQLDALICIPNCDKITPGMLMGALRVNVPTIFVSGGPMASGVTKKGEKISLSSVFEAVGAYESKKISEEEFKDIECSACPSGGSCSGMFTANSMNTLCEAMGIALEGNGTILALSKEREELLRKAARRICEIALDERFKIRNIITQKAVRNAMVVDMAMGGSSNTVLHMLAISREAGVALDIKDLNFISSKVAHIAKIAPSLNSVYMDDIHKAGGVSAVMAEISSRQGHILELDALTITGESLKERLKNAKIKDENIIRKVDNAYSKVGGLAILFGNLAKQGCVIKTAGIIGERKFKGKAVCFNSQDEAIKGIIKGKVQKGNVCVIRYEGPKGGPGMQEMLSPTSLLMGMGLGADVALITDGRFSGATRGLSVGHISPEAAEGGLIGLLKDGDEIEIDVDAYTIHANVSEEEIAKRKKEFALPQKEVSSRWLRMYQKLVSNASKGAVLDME

[3] = molecular target: T1, SaDHAD (dihydroxy-acid dehydratase); assay: DNPH colorimetric endpoint assay with DHIV, no pre-incubation
[4] = molecular target: T2, CjDHAD (dihydroxy-acid dehydratase); assay: as above

T1 sequence (Q2FWK7 whole entry): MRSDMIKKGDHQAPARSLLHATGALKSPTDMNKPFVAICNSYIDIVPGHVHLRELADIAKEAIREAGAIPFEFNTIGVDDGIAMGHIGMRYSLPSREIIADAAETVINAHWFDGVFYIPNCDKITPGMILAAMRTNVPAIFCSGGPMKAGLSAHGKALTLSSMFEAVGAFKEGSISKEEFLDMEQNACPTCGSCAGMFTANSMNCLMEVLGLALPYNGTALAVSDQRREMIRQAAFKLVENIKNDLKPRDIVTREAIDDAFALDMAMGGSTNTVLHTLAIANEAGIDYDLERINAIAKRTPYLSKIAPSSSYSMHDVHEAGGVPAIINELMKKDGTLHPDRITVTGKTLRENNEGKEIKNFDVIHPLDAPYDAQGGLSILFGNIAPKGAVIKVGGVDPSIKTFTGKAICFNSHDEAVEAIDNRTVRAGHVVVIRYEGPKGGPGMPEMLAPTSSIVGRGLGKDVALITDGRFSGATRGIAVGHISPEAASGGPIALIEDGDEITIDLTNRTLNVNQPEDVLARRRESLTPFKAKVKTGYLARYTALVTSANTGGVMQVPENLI

Compound | Ki [1] [µM] | Ki [2] [µM] | Ki [3] [µM] | Ki [4] [µM]
CC(C)N(O)C(=O)C(=O)O [IpOHA] | 7.8 | 32.9 | – | –
CC(C)=C1CC[C@]23CO[C@H](C2)[C@@](O)(C(=O)O)CC[C@@H]13 [aspterric acid] | – | – | 51.6 | 35.1
